Laboratory results published in patent US8586582B2, “PI3K/mTOR kinase inhibitors” (Xcovery Holding Company, LLC, priority 2008, dated 2013).

Target: T1, mTOR kinase (Homo sapiens, UniProt P42345)
T1 construct: purchased Invitrogen Corp. (Madison, Wis., USA)
Assay: Z'-LYTE biochemical assay for mTOR (Invitrogen)
Protocol: The Z′-LYTE® biochemical assay for mTOR
The mTOR kinase activity was assessed using the Z′-LYTE® biochemical assay of Invitrogen Corp. (Madison, Wis., USA).

T1 sequence (P42345 1360-2549 limits assumed): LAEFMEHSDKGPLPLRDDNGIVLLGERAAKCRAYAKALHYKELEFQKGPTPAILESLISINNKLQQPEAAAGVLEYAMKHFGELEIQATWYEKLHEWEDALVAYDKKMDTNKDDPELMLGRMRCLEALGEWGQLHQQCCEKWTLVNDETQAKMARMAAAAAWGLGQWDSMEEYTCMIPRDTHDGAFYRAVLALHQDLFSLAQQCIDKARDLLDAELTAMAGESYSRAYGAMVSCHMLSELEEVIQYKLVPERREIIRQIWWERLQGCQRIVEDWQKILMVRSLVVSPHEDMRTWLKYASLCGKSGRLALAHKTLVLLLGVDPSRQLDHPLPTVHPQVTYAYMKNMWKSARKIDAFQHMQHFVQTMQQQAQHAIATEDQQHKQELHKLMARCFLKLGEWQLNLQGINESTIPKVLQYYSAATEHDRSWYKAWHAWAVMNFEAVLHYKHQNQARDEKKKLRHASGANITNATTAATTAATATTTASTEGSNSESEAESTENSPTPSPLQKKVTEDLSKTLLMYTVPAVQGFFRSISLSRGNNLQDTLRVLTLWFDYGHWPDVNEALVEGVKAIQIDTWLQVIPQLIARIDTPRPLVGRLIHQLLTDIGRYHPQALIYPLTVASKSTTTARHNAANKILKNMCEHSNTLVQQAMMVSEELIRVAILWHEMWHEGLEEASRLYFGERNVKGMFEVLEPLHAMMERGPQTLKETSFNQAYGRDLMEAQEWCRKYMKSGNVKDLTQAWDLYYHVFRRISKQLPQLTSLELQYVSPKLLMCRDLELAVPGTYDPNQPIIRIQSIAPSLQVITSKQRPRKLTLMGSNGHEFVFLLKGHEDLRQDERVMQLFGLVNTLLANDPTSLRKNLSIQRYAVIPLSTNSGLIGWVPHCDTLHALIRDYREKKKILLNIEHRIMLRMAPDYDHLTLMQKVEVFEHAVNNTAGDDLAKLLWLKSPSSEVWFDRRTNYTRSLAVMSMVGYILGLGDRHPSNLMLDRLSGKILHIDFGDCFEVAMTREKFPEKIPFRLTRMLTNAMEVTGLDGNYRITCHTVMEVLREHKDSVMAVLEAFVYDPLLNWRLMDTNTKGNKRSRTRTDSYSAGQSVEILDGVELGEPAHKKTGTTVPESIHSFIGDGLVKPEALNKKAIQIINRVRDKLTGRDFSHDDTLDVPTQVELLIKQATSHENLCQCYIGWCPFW

IC50 [nM]	Compound
< 1000	Nc1ncc(-c2nc(N3CCOCC3)nc3c2cnn3C2CCOCC2)cn1 [Example 1, 5-(1-(2H-3,4,5,6-tetrahydropyran-4-yl)-6-morpholin-4-ylpyrazolo[4,5-e]pyrimidin-4-yl)pyrimidine-2-ylamine]
< 1000	CN1CCN(C(=O)N2CCC(n3ncc4c(-c5cnc(N)nc5)nc(N5CCOCC5)nc43)CC2)CC1 [Example 4, 4-[4-(2-aminopyrimidin-5-yl)-6-morpholin-4-ylpyrazolo[5,4-d]pyrimidinyl]piperidyl 4-methylpiperazinyl ketone]
